In patent US9956233B2 (priority 2015, dated 2018):

What was measured:
AMPK = AMPK activation, phosphorylation at T172; type: cell-based; conditions: N27 cells, 10-100 μM, 24 h
Text: In this example we assessed whether mito-Met alters mitochondrial biogenesis in a dopaminergic cell model.

[1] = test system: complex I in the mitochondrial respiratory chain; conditions: cited from earlier work
[2] = diabetic patients; cited from earlier work
Tfam = Tfam protein and mRNA expression; conditions: N27 cells, 10-100 μM, 24 h
[3] = test system: primary dopaminergic neurons; assay: MPP+ toxicity in primary mesencephalic neuronal cultures, TH+ neurite length; type: cell-based; conditions: 10 μM, 24 h
Procedure: Primary […] neurons were treated with 10 μM MPP+ alone or co-treated with 100-300 nM mito-Met for 24 h. […] FIG. 7B depicts quantification of neurite length of TH+ neurons.
Primary mesencephalic neuronal cultures were treated for 24 h with 10 μM MPP^+ alone or co-treated with 100 and 300 nM mito-Met, dopaminergic neurotoxicity was assessed by TH immunocytochemistry (FIG. 7A) and quantification of neurite length of TH^+ neurons (FIG. 7B). MPP^+ reduced the neurite length of TH-immunoreactive neurons to almost 45% of the vehicle-treated group, indicating significant dopaminergic neurotoxicity.

| Compound | phosphorylation of AMPK Thr172 (AMPK) | effect on mitochondrial complex-1 activity ([1]; at approximately 0.1 mM) | inhibition of complex I in the mitochondrial respiratory chain ([1]; in vitro, millimolar concentrations) | tolerated daily doses [2] | protein levels of Tfam (Tfam) | neurite length of TH-immunoreactive neurons, of the vehicle-treated group [3] |
| --- | --- | --- | --- | --- | --- | --- |
| CN(C)C(=N)N=C(N)N [metformin, Metformin] | significantly increased | does not affect | inhibit | 2-3 grams | upregulated |  |
| C[n+]1ccc(-c2ccccc2)cc1 [MPP^+] |  |  |  |  |  | ~45% |
